Assay type in all cases: in vivo
Experiment [1] concerns Lindernia procumbens. Kind of experiment: Herbicidal efficacy on paddy field weeds of pre-emergence stage (Pre), Test Example 1. The settings on record: 1000 g/ha as active ingredient, examined after 21 days. In a few lines:
(§1)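 Clay-loam pots sown with Scirpus juncoides, covered with soil containing Lindernia procumbens seed, flooded to 5 cm. Next day formulated compound applied dropwise to water at 1000 g/ha a.i. Greenhouse-grown; growth inhibition versus untreated scored 0–5 after 21 days.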

The subject of experiment [2] is Scirpus juncoides. The description is as above. Particulars: 1000 g/ha as active ingredient, examined after 21 days. In a few lines: as §1
For experiment [3], the system named is Echinochloa crus-galli. Briefly: Herbicidal effect on paddy field weeds of post-emergence stage (Post), Test Example 2. The settings on record: one-leaf stage, 1000 g/ha as active ingredient, examined after 21 days. In a few lines:
(§2)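 Scirpus juncoides and Echinochloa crus-galli sown in clay loam, with Lindernia procumbens seed in the soil cover, under 5 cm flooding in greenhouse. At one-leaf stage, 1000 g/ha active ingredient applied to pot water. Efficacy scored visually 0–5 against untreated plants at 21 days after treatment.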

Experiment [4] relates to Lindernia procumbens. Described as above. The settings on record: one-leaf stage, 1000 g/ha as active ingredient, examined after 21 days. In a few lines: as §2
For experiment [5], the system named is Scirpus juncoides. The experiment is described as above. The settings on record: one-leaf stage, 1000 g/ha as active ingredient, examined after 21 days. Summed up:
as §2

For `CCC1(c2ccccc2)CCN(Cc2ccccc2N(C(=O)OC)S(=O)(=O)C(F)(F)F)C(=O)O1` (centres unmarked) [Compound 1-317], in experiment [1], the “Lindernia procumbens pre (herbicidal effect)” value (from here on “Lindernia procumbens pre”) is 5 (100% herbicidal effect, phytotoxicity). The “Scirpus juncoides pre (herbicidal effect)” value (shortened to “Scirpus juncoides pre”) in experiment [2] is listed as 4 (90%-99% herbicidal effect, phytotoxicity). Moreover, the “Echinochloa crus-galli post (herbicidal effect)” value (“Echinochloa crus-galli post” for short) in experiment [3] is given as 4 (90%-99% herbicidal effect, phytotoxicity). The “Lindernia procumbens post (herbicidal effect)” value (from here on “Lindernia procumbens post”) in experiment [4] is on record as 5 (100% herbicidal effect, phytotoxicity). In addition, the “Scirpus juncoides post (herbicidal effect)” value (“Scirpus juncoides post” below) in experiment [5] is listed as 4 (90%-99% herbicidal effect, phytotoxicity).

For the compound `CCCC1(CC)CCN(Cc2ccccc2N(C(=O)OCC(C)C)S(=O)(=O)C(F)(F)F)C(=O)O1` (racemic) [Compound 1-499], in experiment [1], the “Lindernia procumbens pre” value is listed as 5 (100% herbicidal effect, phytotoxicity). In experiment [2], the “Scirpus juncoides pre” value is recorded as 5 (100% herbicidal effect, phytotoxicity). Further, the “Echinochloa crus-galli post” value in experiment [3] was 4 (90%-99% herbicidal effect, phytotoxicity). Moreover, the “Lindernia procumbens post” value in experiment [4] is 5 (100% herbicidal effect, phytotoxicity). The “Scirpus juncoides post” value in experiment [5] was 4 (90%-99% herbicidal effect, phytotoxicity).

Regarding `CCOC(=O)N(c1ccccc1CN1CCC(c2c(Cl)cccc2Cl)OC1=O)S(=O)(=O)C(F)(F)F` (centres unmarked) [Compound 1-274], the “Lindernia procumbens pre” value in experiment [1] was 5 (100% herbicidal effect, phytotoxicity). For the same compound, in experiment [2], the “Scirpus juncoides pre” value is reported as 4 (90%-99% herbicidal effect, phytotoxicity). Besides, the “Echinochloa crus-galli post” value in experiment [3] is 4 (90%-99% herbicidal effect, phytotoxicity). Besides, in experiment [4], the “Lindernia procumbens post” value was 5 (100% herbicidal effect, phytotoxicity). Also, the “Scirpus juncoides post” value in experiment [5] is reported as 4 (90%-99% herbicidal effect, phytotoxicity).

As for `CCOC(=O)N(c1ccccc1CN1CCC(C)(Cc2ccccc2F)OC1=O)S(=O)(=O)C(F)(F)F` (racemic) [Compound 1-463], the “Lindernia procumbens pre” value in experiment [1] is given as 5 (100% herbicidal effect, phytotoxicity). Also, in experiment [2], the “Scirpus juncoides pre” value is recorded as 5 (100% herbicidal effect, phytotoxicity). In addition, the “Echinochloa crus-galli post” value in experiment [3] was 4 (90%-99% herbicidal effect, phytotoxicity). Moreover, the “Lindernia procumbens post” value in experiment [4] is given as 5 (100% herbicidal effect, phytotoxicity). The “Scirpus juncoides post” value in experiment [5] is 4 (90%-99% herbicidal effect, phytotoxicity).

As for `CCCOC(=O)N(c1ccccc1CN1CCCCOC1=O)S(=O)(=O)C(F)(F)F` [2-4], the “Lindernia procumbens pre” value in experiment [1] is reported as 4 (90%-99% herbicidal effect, phytotoxicity). In addition, the “Scirpus juncoides pre” value in experiment [2] is recorded as 4 (90%-99% herbicidal effect, phytotoxicity). For the same compound, the “Echinochloa crus-galli post” value in experiment [3] is listed as 4 (90%-99% herbicidal effect, phytotoxicity). The “Lindernia procumbens post” value in experiment [4] is 4 (90%-99% herbicidal effect, phytotoxicity). Moreover, the “Scirpus juncoides post” value in experiment [5] is given as 4 (90%-99% herbicidal effect, phytotoxicity).

Regarding `COC(=O)N(c1ccccc1CN1CCC(C)(c2ccccc2C(F)(F)F)OC1=O)S(=O)(=O)C(F)(F)F` (centres unmarked) [Compound 1-394], in experiment [1], the “Lindernia procumbens pre” value is recorded as 5 (100% herbicidal effect, phytotoxicity). In addition, the “Scirpus juncoides pre” value in experiment [2] was 5 (100% herbicidal effect, phytotoxicity). The “Echinochloa crus-galli post” value in experiment [3] is 4 (90%-99% herbicidal effect, phytotoxicity). Further, the “Lindernia procumbens post” value in experiment [4] is reported as 5 (100% herbicidal effect, phytotoxicity). Further, the “Scirpus juncoides post” value in experiment [5] is reported as 4 (90%-99% herbicidal effect, phytotoxicity).

On to `CCC1(C(C)C)CCN(Cc2ccccc2NS(=O)(=O)C(F)(F)F)C(=O)O1` (racemic) [Compound 1-450], for which the “Lindernia procumbens pre” value in experiment [1] is reported as 5 (100% herbicidal effect, phytotoxicity). Further, in experiment [2], the “Scirpus juncoides pre” value is recorded as 5 (100% herbicidal effect, phytotoxicity). Further, the “Echinochloa crus-galli post” value in experiment [3] is 4 (90%-99% herbicidal effect, phytotoxicity). Besides, in experiment [4], the “Lindernia procumbens post” value is given as 5 (100% herbicidal effect, phytotoxicity). Also, in experiment [5], the “Scirpus juncoides post” value is given as 4 (90%-99% herbicidal effect, phytotoxicity).

For the compound `CCCCOC(=O)N(c1ccccc1CN1CCC(C)COC1=O)S(=O)(=O)C(F)(F)F` (racemic) [2-27], in experiment [1], the “Lindernia procumbens pre” value was 4 (90%-99% herbicidal effect, phytotoxicity). The “Scirpus juncoides pre” value in experiment [2] is recorded as 4 (90%-99% herbicidal effect, phytotoxicity). Further, the “Echinochloa crus-galli post” value in experiment [3] is 4 (90%-99% herbicidal effect, phytotoxicity). Besides, the “Lindernia procumbens post” value in experiment [4] is 4 (90%-99% herbicidal effect, phytotoxicity). Further, the “Scirpus juncoides post” value in experiment [5] is given as 4 (90%-99% herbicidal effect, phytotoxicity).

With `CCC1(C)CCN(Cc2ccccc2N(C(=O)OCC(C)C)S(=O)(=O)C(F)(F)F)C(=O)O1` (centres unmarked) [Compound 1-74], in experiment [1], the “Lindernia procumbens pre” value was 4 (90%-99% herbicidal effect, phytotoxicity). The “Scirpus juncoides pre” value in experiment [2] is given as 4 (90%-99% herbicidal effect, phytotoxicity). For the same compound, the “Echinochloa crus-galli post” value in experiment [3] is 4 (90%-99% herbicidal effect, phytotoxicity). Also, the “Lindernia procumbens post” value in experiment [4] is 4 (90%-99% herbicidal effect, phytotoxicity). Also, the “Scirpus juncoides post” value in experiment [5] is listed as 4 (90%-99% herbicidal effect, phytotoxicity).

With `CCOC(=O)N(c1ccccc1CN1CCC(c2ccccc2)(C2CC2)OC1=O)S(=O)(=O)C(F)(F)F` (centres unmarked) [Compound 1-185], the “Lindernia procumbens pre” value in experiment [1] is 4 (90%-99% herbicidal effect, phytotoxicity). For the same compound, the “Scirpus juncoides pre” value in experiment [2] is given as 4 (90%-99% herbicidal effect, phytotoxicity). The “Echinochloa crus-galli post” value in experiment [3] is given as 4 (90%-99% herbicidal effect, phytotoxicity). Besides, the “Lindernia procumbens post” value in experiment [4] is reported as 4 (90%-99% herbicidal effect, phytotoxicity). Moreover, the “Scirpus juncoides post” value in experiment [5] is recorded as 4 (90%-99% herbicidal effect, phytotoxicity).

As for `CCOC(=O)N(c1ccccc1CN1CCC(c2ccccc2C(F)(F)F)OC1=O)S(=O)(=O)C(F)(F)F` (centres unmarked) [Compound 1-296], the “Lindernia procumbens pre” value in experiment [1] is listed as 5 (100% herbicidal effect, phytotoxicity). In addition, the “Scirpus juncoides pre” value in experiment [2] is listed as 4 (90%-99% herbicidal effect, phytotoxicity). Moreover, the “Echinochloa crus-galli post” value in experiment [3] was 4 (90%-99% herbicidal effect, phytotoxicity). In addition, the “Lindernia procumbens post” value in experiment [4] is 5 (100% herbicidal effect, phytotoxicity). Further, the “Scirpus juncoides post” value in experiment [5] is recorded as 4 (90%-99% herbicidal effect, phytotoxicity).

Take `CCOC(=O)N(c1ccccc1CN1CCC(CC)(c2ccccc2)OC1=O)S(=O)(=O)C(F)(F)F` (centres unmarked) [Compound 1-318]: the “Lindernia procumbens pre” value in experiment [1] was 5 (100% herbicidal effect, phytotoxicity). The “Scirpus juncoides pre” value in experiment [2] is listed as 4 (90%-99% herbicidal effect, phytotoxicity). Further, the “Echinochloa crus-galli post” value in experiment [3] was 4 (90%-99% herbicidal effect, phytotoxicity). Moreover, the “Lindernia procumbens post” value in experiment [4] is on record as 5 (100% herbicidal effect, phytotoxicity). For the same compound, the “Scirpus juncoides post” value in experiment [5] is 4 (90%-99% herbicidal effect, phytotoxicity).

Take `CC(C)(C)COC(=O)N(c1ccccc1CN1CCC2(CCCC2)OC1=O)S(=O)(=O)C(F)(F)F` [Compound 1-143]: the “Lindernia procumbens pre” value in experiment [1] was 4 (90%-99% herbicidal effect, phytotoxicity). The “Scirpus juncoides pre” value in experiment [2] is 4 (90%-99% herbicidal effect, phytotoxicity). Also, the “Echinochloa crus-galli post” value in experiment [3] is reported as 4 (90%-99% herbicidal effect, phytotoxicity). Also, the “Lindernia procumbens post” value in experiment [4] was 4 (90%-99% herbicidal effect, phytotoxicity). Moreover, the “Scirpus juncoides post” value in experiment [5] is 4 (90%-99% herbicidal effect, phytotoxicity).
